# Test results reported in PubChem BioAssay (NCI).
#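 Briefly, cells in 96-well plates were exposed to five compound concentrations for 48 h, and endpoints were estimated by linear interpolation. TGI: concentration producing complete growth inhibition.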
# Legend:
# Assay in all cases: NCI tumour cell line growth inhibition, 48 h
# 786-0 renal = test system: 786-0 renal
# A498 renal = test system: A498 renal
# A549 NSCLC = test system: A549 NSCLC
# ACHN renal = test system: ACHN renal
# CAKI-1 renal = test system: CAKI-1 renal
# COLO 205 colon = test system: COLO 205 colon
# DLD-1 colon = test system: DLD-1 colon
# DMS 114 small cell lung = test system: DMS 114 small cell lung
# DMS 273 small cell lung = test system: DMS 273 small cell lung
# EKVX NSCLC = test system: EKVX NSCLC
# HCC-2998 colon = test system: HCC-2998 colon
# HCT-116 colon = test system: HCT-116 colon
# HCT-15 colon = test system: HCT-15 colon
# HL-60(TB) leukemia = test system: HL-60(TB) leukemia
# HOP-18 NSCLC = test system: HOP-18 NSCLC
# HOP-62 NSCLC = test system: HOP-62 NSCLC
# HOP-92 NSCLC = test system: HOP-92 NSCLC
# HT29 colon = test system: HT29 colon
# IGROV1 ovarian = test system: IGROV1 ovarian
# K-562 leukemia = test system: K-562 leukemia
# KM12 colon = test system: KM12 colon
# KM20L2 colon = test system: KM20L2 colon
# LOX IMVI melanoma = test system: LOX IMVI melanoma
# LXFL 529 NSCLC = test system: LXFL 529 NSCLC
# M14 melanoma = test system: M14 melanoma
# M19-MEL melanoma = test system: M19-MEL melanoma
# MALME-3M melanoma = test system: MALME-3M melanoma
# MOLT-4 leukemia = test system: MOLT-4 leukemia
# NCI-H226 lung = test system: NCI-H226 lung
# NCI-H23 lung = test system: NCI-H23 lung
# NCI-H460 lung = test system: NCI-H460 lung
# NCI-H522 lung = test system: NCI-H522 lung
# OVCAR-3 ovarian = test system: OVCAR-3 ovarian
# OVCAR-4 ovarian = test system: OVCAR-4 ovarian
# OVCAR-5 ovarian = test system: OVCAR-5 ovarian
# OVCAR-8 ovarian = test system: OVCAR-8 ovarian
# RPMI-8226 leukemia = test system: RPMI-8226 leukemia
# RXF 393 renal = test system: RXF 393 renal
# RXF-631 renal = test system: RXF-631 renal
# SF-268 CNS = test system: SF-268 CNS
# SF-295 CNS = test system: SF-295 CNS
# SF-539 CNS = test system: SF-539 CNS
# SK-MEL-28 melanoma = test system: SK-MEL-28 melanoma
# SK-MEL-5 melanoma = test system: SK-MEL-5 melanoma
# SK-OV-3 ovarian = test system: SK-OV-3 ovarian
# SN12C renal = test system: SN12C renal
# SNB-19 CNS = test system: SNB-19 CNS
# SNB-75 CNS = test system: SNB-75 CNS
# SNB-78 CNS = test system: SNB-78 CNS
# SR leukemia = test system: SR leukemia
# SW-620 colon = test system: SW-620 colon
# TK-10 renal = test system: TK-10 renal
# U251 CNS = test system: U251 CNS
# UACC-257 melanoma = test system: UACC-257 melanoma
# UACC-62 melanoma = test system: UACC-62 melanoma
# UO-31 renal = test system: UO-31 renal
# XF 498 CNS = test system: XF 498 CNS
# CCRF-CEM leukemia = test system: CCRF-CEM leukemia
# SK-MEL-2 melanoma = test system: SK-MEL-2 melanoma
# MCF7 breast = test system: MCF7 breast
# NCI/ADR-RES ovarian = test system: NCI/ADR-RES ovarian
# P388 leukemia = test system: P388 leukemia
# P388/ADR leukemia = test system: P388/ADR leukemia
# SN12K1 renal = test system: SN12K1 renal
smiles,measurement,setting,value
Cc1ccc(S(=O)OC23CC4CC(CC(C4)C2)C3)cc1 (configuration not stated),TGI,786-0 renal,> 100 µM
same,TGI,A498 renal,> 100 µM
same,TGI,A549 NSCLC,> 100 µM
same,TGI,ACHN renal,> 100 µM
same,TGI,CAKI-1 renal,> 100 µM
same,TGI,COLO 205 colon,> 100 µM
same,TGI,DLD-1 colon,> 100 µM
same,TGI,DMS 114 small cell lung,> 100 µM
same,TGI,DMS 273 small cell lung,> 100 µM
same,TGI,EKVX NSCLC,> 100 µM
same,TGI,HCC-2998 colon,> 100 µM
same,TGI,HCT-116 colon,> 100 µM
same,TGI,HCT-15 colon,> 100 µM
same,TGI,HL-60(TB) leukemia,44.3 µM
same,TGI,HOP-18 NSCLC,> 100 µM
same,TGI,HOP-62 NSCLC,> 100 µM
same,TGI,HOP-92 NSCLC,> 100 µM
same,TGI,HT29 colon,> 100 µM
same,TGI,IGROV1 ovarian,85.7 µM
same,TGI,K-562 leukemia,> 100 µM
same,TGI,KM12 colon,> 100 µM
same,TGI,KM20L2 colon,> 100 µM
same,TGI,LOX IMVI melanoma,> 100 µM
same,TGI,LXFL 529 NSCLC,> 100 µM
same,TGI,M14 melanoma,> 100 µM
same,TGI,M19-MEL melanoma,> 100 µM
same,TGI,MALME-3M melanoma,> 100 µM
same,TGI,MOLT-4 leukemia,> 100 µM
same,TGI,NCI-H226 lung,> 100 µM
same,TGI,NCI-H23 lung,> 100 µM
same,TGI,NCI-H460 lung,> 100 µM
same,TGI,NCI-H522 lung,> 100 µM
same,TGI,OVCAR-3 ovarian,> 100 µM
same,TGI,OVCAR-4 ovarian,> 100 µM
same,TGI,OVCAR-5 ovarian,> 100 µM
same,TGI,OVCAR-8 ovarian,> 100 µM
same,TGI,RPMI-8226 leukemia,> 100 µM
same,TGI,RXF 393 renal,> 100 µM
same,TGI,RXF-631 renal,> 100 µM
same,TGI,SF-268 CNS,> 100 µM
same,TGI,SF-295 CNS,> 100 µM
same,TGI,SF-539 CNS,> 100 µM
same,TGI,SK-MEL-28 melanoma,> 100 µM
same,TGI,SK-MEL-5 melanoma,> 100 µM
same,TGI,SK-OV-3 ovarian,> 100 µM
same,TGI,SN12C renal,> 100 µM
same,TGI,SNB-19 CNS,> 100 µM
same,TGI,SNB-75 CNS,> 100 µM
same,TGI,SNB-78 CNS,> 100 µM
same,TGI,SR leukemia,> 100 µM
same,TGI,SW-620 colon,> 100 µM
same,TGI,TK-10 renal,> 100 µM
same,TGI,U251 CNS,> 100 µM
same,TGI,UACC-257 melanoma,> 100 µM
same,TGI,UACC-62 melanoma,> 100 µM
same,TGI,UO-31 renal,> 100 µM
same,TGI,XF 498 CNS,> 100 µM
CC(=O)n1ccc2c(Cl)ncnc21,TGI,786-0 renal,> 100 µM
same,TGI,A498 renal,> 100 µM
same,TGI,A549 NSCLC,> 100 µM
same,TGI,ACHN renal,> 100 µM
same,TGI,CAKI-1 renal,> 100 µM
same,TGI,CCRF-CEM leukemia,> 100 µM
same,TGI,COLO 205 colon,> 100 µM
same,TGI,DLD-1 colon,> 100 µM
same,TGI,DMS 114 small cell lung,> 100 µM
same,TGI,DMS 273 small cell lung,> 100 µM
same,TGI,EKVX NSCLC,> 100 µM
same,TGI,HCC-2998 colon,> 100 µM
same,TGI,HCT-116 colon,> 100 µM
same,TGI,HCT-15 colon,> 100 µM
same,TGI,HL-60(TB) leukemia,> 100 µM
same,TGI,HOP-18 NSCLC,> 100 µM
same,TGI,HOP-62 NSCLC,> 100 µM
same,TGI,HOP-92 NSCLC,> 100 µM
same,TGI,HT29 colon,> 100 µM
same,TGI,IGROV1 ovarian,> 100 µM
same,TGI,K-562 leukemia,> 100 µM
same,TGI,KM12 colon,> 100 µM
same,TGI,KM20L2 colon,> 100 µM
same,TGI,LOX IMVI melanoma,> 100 µM
same,TGI,LXFL 529 NSCLC,> 100 µM
same,TGI,M14 melanoma,> 100 µM
same,TGI,M19-MEL melanoma,> 100 µM
same,TGI,MOLT-4 leukemia,> 100 µM
same,TGI,NCI-H23 lung,> 100 µM
same,TGI,NCI-H460 lung,> 100 µM
same,TGI,NCI-H522 lung,> 54.4 µM
same,TGI,OVCAR-3 ovarian,> 100 µM
same,TGI,OVCAR-8 ovarian,> 100 µM
same,TGI,RPMI-8226 leukemia,> 100 µM
same,TGI,RXF 393 renal,> 100 µM
same,TGI,RXF-631 renal,> 100 µM
same,TGI,SF-268 CNS,> 100 µM
same,TGI,SF-295 CNS,> 100 µM
same,TGI,SF-539 CNS,> 100 µM
same,TGI,SK-MEL-2 melanoma,> 100 µM
same,TGI,SK-MEL-28 melanoma,> 100 µM
same,TGI,SK-MEL-5 melanoma,> 100 µM
same,TGI,SK-OV-3 ovarian,> 100 µM
same,TGI,SN12C renal,> 100 µM
same,TGI,SNB-19 CNS,> 100 µM
same,TGI,SNB-75 CNS,> 100 µM
same,TGI,SNB-78 CNS,> 100 µM
same,TGI,SR leukemia,> 100 µM
same,TGI,SW-620 colon,> 100 µM
same,TGI,TK-10 renal,> 100 µM
same,TGI,U251 CNS,> 100 µM
same,TGI,UACC-257 melanoma,> 100 µM
same,TGI,UACC-62 melanoma,> 100 µM
same,TGI,UO-31 renal,> 100 µM
CN(CCO)/N=N/c1[nH]ncc1C(N)=O,TGI,A498 renal,> 100 µM
same,TGI,A549 NSCLC,> 100 µM
same,TGI,CAKI-1 renal,> 100 µM
same,TGI,CCRF-CEM leukemia,> 100 µM
same,TGI,COLO 205 colon,> 100 µM
same,TGI,DLD-1 colon,> 100 µM
same,TGI,DMS 114 small cell lung,> 100 µM
same,TGI,DMS 273 small cell lung,> 100 µM
same,TGI,EKVX NSCLC,> 100 µM
same,TGI,HCC-2998 colon,> 100 µM
same,TGI,HCT-116 colon,> 100 µM
same,TGI,HCT-15 colon,> 100 µM
same,TGI,HL-60(TB) leukemia,> 100 µM
same,TGI,HOP-18 NSCLC,> 100 µM
same,TGI,HOP-92 NSCLC,> 100 µM
same,TGI,HT29 colon,> 100 µM
same,TGI,IGROV1 ovarian,> 100 µM
same,TGI,K-562 leukemia,> 100 µM
same,TGI,KM12 colon,> 100 µM
same,TGI,KM20L2 colon,> 100 µM
same,TGI,LOX IMVI melanoma,> 100 µM
same,TGI,M19-MEL melanoma,> 100 µM
same,TGI,MALME-3M melanoma,> 100 µM
same,TGI,MCF7 breast,> 100 µM
same,TGI,MOLT-4 leukemia,> 100 µM
same,TGI,NCI-H226 lung,> 100 µM
same,TGI,NCI-H23 lung,> 100 µM
same,TGI,NCI-H460 lung,> 100 µM
same,TGI,NCI-H522 lung,> 100 µM
same,TGI,NCI/ADR-RES ovarian,> 100 µM
same,TGI,OVCAR-3 ovarian,> 100 µM
same,TGI,OVCAR-4 ovarian,> 100 µM
same,TGI,OVCAR-5 ovarian,> 100 µM
same,TGI,OVCAR-8 ovarian,> 100 µM
same,TGI,P388 leukemia,> 100 µM
same,TGI,P388/ADR leukemia,> 100 µM
same,TGI,RPMI-8226 leukemia,> 100 µM
same,TGI,RXF 393 renal,> 100 µM
same,TGI,SF-268 CNS,> 100 µM
same,TGI,SF-295 CNS,> 100 µM
same,TGI,SF-539 CNS,> 100 µM
same,TGI,SK-MEL-2 melanoma,> 100 µM
same,TGI,SK-MEL-28 melanoma,> 100 µM
same,TGI,SK-MEL-5 melanoma,> 100 µM
same,TGI,SK-OV-3 ovarian,> 100 µM
same,TGI,SN12C renal,> 100 µM
same,TGI,SN12K1 renal,> 100 µM
same,TGI,SNB-19 CNS,> 100 µM
same,TGI,SNB-75 CNS,> 100 µM
same,TGI,SNB-78 CNS,> 100 µM
same,TGI,SW-620 colon,> 100 µM
same,TGI,U251 CNS,> 100 µM
same,TGI,UACC-257 melanoma,> 100 µM
same,TGI,UACC-62 melanoma,> 100 µM
same,TGI,UO-31 renal,> 100 µM
same,TGI,XF 498 CNS,> 100 µM
